Here are results for 2 compounds from US8883428B2, “Methods to determine atherosclerosis regression, plaque stabilization and cardiovascular risk” (The Regents of the University of California, priority 2009, dated 2014).

For experiment [1] the following is noted: patients with coronary artery disease already on statins; measured before and after treatment; FIG. 3.
The nature of experiment [2]: OxPL/apoA in patients treated with JTT-705, then placebo. The experiment is classed as in vivo, human. The conditions noted are these: nineteen patients; active treatment followed by placebo; FIG. 4. The method, then: Patients were then taken off the JTT-705 and placed on placebo. […] Add 50 μl/well. […] Leave at room temperature for 1-2 hours. Wash plate as above. […] Incubate at room temperature for 1 hour. Wash plate with cell washer set at 4 washes. […] Keep in the dark. Read in Chemiluminescence detector as relative light units (RLU). All assays are run in triplicate.

With `O=C(O)c1cccnc1` [niacin], the “OxPL/apoA change following treatment” value in experiment [1] is “increased significantly”.

For `CCC(CC)CC1(C(=O)Nc2ccccc2SC(=O)C(C)C)CCCCC1` [JTT-705], the “OxPL/apoA change during treatment” value in experiment [2] is reported as “increased during the active treatment”.
